Calls of active or inactive are those of the source.
How the values were obtained:
[1] = target: ATP-dependent RNA helicase DDX3X (Homo sapiens, UniProt O00571)
[2] = target: AP2-associated protein kinase 1 (Homo sapiens, UniProt Q2M2I8)
[3] = target: T1, Membrane-associated tyrosine- and threonine-specific cdc2-inhibitory kinase (Homo sapiens, UniProt Q99640)
T1 sequence (Q99640 whole entry): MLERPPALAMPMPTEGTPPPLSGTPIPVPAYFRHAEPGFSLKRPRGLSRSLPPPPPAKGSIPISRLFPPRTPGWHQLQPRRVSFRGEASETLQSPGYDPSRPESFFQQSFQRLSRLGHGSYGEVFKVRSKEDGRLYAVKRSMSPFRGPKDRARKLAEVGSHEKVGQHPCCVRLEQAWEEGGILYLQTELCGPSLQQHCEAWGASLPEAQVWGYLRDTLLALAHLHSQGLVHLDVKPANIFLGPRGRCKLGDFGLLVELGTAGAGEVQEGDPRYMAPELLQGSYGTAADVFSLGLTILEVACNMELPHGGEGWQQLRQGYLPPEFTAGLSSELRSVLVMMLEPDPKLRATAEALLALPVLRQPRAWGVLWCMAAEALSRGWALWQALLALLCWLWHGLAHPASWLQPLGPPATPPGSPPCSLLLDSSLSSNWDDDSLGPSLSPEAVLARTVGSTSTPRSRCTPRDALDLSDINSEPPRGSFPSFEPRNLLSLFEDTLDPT

[4] = target: Mitogen-activated protein kinase 1 (Homo sapiens, UniProt P28482)
Mitogen-activated protein kinase 1, sequence (P28482 whole entry): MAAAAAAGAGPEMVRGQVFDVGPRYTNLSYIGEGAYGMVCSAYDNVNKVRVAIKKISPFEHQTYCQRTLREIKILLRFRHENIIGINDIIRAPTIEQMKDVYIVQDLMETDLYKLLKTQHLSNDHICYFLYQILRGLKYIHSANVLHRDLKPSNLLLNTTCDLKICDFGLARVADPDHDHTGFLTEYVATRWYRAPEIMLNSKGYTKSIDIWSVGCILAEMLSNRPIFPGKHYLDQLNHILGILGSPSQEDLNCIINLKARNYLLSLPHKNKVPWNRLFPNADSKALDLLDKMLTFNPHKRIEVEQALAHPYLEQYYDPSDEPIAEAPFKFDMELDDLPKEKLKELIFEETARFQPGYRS

Insulin receptor = Insulin receptor (Homo sapiens, UniProt P06213)
Insulin receptor, sequence (P06213 28-758 limits assumed): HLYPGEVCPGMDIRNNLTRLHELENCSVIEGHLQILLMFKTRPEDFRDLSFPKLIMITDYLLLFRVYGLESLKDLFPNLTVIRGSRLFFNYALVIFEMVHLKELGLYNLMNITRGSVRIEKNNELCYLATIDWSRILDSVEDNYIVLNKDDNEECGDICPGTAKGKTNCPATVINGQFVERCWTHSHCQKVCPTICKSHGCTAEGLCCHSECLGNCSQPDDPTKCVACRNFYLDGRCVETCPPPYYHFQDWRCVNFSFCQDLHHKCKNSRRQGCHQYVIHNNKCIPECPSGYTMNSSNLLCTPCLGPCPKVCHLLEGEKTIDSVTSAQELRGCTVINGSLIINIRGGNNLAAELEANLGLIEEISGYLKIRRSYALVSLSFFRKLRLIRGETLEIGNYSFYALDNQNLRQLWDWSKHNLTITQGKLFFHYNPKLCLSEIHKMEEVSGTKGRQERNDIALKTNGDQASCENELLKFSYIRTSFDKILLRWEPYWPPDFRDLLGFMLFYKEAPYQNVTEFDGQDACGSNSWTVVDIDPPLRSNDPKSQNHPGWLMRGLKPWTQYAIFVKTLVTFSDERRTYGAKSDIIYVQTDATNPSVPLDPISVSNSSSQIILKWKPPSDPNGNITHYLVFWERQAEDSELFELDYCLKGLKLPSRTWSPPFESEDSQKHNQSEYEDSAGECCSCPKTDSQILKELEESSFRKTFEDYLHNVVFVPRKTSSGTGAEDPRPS
Insulin receptor, sequence (P06213 763-1382 limits assumed): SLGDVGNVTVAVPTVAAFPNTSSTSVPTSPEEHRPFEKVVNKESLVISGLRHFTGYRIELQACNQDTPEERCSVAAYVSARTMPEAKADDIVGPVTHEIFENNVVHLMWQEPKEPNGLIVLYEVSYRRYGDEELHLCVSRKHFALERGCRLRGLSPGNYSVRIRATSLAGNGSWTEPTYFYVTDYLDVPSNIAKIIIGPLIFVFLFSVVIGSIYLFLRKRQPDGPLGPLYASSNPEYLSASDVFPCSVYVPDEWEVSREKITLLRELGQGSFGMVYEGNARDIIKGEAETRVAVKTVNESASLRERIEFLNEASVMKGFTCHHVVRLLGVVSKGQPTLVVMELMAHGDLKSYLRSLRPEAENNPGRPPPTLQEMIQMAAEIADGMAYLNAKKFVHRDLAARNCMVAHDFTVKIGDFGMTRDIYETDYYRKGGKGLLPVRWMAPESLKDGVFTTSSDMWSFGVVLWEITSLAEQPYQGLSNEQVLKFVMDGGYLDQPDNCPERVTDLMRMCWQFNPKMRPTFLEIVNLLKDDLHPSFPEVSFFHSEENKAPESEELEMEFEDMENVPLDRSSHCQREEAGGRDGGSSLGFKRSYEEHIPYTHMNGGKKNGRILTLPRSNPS

TGF-beta receptor type-2 = TGF-beta receptor type-2 (Homo sapiens, UniProt P37173)
TGF-beta receptor type-2, sequence (P37173 whole entry): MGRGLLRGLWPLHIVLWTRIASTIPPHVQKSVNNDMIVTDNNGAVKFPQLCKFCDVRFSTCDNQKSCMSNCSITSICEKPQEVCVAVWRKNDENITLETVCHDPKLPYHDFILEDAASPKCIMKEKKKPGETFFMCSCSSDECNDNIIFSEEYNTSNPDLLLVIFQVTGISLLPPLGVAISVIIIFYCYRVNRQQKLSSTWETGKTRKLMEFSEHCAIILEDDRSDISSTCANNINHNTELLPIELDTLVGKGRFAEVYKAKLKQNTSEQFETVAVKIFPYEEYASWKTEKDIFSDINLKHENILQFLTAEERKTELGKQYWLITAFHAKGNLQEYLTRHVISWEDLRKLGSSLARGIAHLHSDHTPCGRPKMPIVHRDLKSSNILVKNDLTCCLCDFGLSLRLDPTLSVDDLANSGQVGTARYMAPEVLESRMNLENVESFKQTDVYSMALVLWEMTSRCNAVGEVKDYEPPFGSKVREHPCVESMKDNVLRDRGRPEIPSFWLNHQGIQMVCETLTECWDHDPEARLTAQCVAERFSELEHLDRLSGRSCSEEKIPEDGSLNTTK

[5] = target: Cyclin-dependent kinase 12 (Homo sapiens, UniProt Q9NYV4)
[6] = target: T2, Exosome RNA helicase MTR4 (Homo sapiens, UniProt P42285)
T2 sequence (P42285 whole entry): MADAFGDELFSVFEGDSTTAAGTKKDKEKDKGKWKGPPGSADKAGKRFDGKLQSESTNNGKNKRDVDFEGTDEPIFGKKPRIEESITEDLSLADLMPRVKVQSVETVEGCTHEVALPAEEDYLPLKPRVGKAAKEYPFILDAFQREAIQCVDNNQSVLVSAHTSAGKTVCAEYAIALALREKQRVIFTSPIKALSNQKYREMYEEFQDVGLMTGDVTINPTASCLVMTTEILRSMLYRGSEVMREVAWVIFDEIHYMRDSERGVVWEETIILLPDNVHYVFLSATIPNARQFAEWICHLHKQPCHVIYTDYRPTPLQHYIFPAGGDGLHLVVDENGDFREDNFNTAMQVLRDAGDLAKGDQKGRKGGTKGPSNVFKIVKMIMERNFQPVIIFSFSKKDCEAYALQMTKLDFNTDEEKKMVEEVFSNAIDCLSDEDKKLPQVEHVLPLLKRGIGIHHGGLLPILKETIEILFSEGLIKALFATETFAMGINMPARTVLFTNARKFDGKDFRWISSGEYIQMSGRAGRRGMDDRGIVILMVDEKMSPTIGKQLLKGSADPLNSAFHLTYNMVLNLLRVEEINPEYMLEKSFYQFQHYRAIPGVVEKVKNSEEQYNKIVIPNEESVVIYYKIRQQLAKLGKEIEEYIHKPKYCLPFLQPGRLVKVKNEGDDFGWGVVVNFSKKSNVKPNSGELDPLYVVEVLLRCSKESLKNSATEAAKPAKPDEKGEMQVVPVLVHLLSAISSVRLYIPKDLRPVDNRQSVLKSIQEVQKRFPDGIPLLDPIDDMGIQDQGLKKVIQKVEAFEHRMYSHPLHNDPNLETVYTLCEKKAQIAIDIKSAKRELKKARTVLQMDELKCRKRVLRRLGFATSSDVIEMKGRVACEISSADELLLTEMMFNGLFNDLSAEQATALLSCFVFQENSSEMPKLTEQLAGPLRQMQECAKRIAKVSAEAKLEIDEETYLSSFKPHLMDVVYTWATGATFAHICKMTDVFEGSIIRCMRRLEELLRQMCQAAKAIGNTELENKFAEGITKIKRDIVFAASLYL

Myosin-10 = Myosin-10 (Homo sapiens, UniProt P35580)
[7] = target: cAMP-dependent protein kinase catalytic subunit gamma (Homo sapiens, UniProt P22612)
cAMP-dependent protein kinase catalytic subunit gamma, sequence (P22612 whole entry): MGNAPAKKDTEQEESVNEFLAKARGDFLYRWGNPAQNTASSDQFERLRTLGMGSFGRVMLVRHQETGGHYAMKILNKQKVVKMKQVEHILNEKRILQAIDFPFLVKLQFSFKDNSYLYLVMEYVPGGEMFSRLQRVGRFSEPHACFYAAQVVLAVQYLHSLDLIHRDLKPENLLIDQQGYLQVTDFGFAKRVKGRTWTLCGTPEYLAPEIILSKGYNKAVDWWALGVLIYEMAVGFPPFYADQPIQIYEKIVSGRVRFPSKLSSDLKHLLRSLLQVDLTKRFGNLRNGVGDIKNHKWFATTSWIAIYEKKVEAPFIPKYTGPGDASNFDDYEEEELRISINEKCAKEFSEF

[8] = target: Casein kinase II subunit alpha' (Homo sapiens, UniProt P19784)
Casein kinase II subunit alpha', sequence (P19784 whole entry): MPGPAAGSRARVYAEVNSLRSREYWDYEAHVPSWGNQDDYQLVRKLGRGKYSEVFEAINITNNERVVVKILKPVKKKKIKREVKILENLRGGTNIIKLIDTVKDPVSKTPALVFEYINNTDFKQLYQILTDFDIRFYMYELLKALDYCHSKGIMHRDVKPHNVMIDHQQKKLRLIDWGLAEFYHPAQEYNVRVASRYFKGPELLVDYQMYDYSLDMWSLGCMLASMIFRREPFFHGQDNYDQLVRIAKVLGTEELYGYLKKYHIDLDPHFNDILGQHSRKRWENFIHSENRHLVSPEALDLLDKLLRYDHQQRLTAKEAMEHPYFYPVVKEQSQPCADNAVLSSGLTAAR

[9] = target: Tyrosine-protein kinase BTK (Homo sapiens, UniProt Q06187)
Tyrosine-protein kinase BTK, sequence (Q06187 whole entry, the tested form may be a part): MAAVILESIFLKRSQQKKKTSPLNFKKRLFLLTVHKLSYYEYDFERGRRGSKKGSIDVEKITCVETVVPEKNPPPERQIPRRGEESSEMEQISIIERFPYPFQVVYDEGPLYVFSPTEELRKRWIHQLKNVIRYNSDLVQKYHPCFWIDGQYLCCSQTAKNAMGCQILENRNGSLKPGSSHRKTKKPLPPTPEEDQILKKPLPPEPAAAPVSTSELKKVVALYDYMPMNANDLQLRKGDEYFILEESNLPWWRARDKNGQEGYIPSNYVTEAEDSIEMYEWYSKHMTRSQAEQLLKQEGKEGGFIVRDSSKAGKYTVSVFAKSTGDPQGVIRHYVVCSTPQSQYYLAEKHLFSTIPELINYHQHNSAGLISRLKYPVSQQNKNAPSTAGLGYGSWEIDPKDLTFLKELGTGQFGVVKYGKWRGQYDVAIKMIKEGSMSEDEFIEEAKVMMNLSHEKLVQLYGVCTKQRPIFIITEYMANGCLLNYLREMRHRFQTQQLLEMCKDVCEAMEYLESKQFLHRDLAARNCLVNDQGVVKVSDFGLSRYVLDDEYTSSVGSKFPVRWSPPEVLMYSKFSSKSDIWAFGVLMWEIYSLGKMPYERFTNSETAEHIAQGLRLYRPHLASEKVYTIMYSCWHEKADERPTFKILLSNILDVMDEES

LIM domain kinase 1 = LIM domain kinase 1 (Homo sapiens, UniProt P53667)
LIM domain kinase 1, sequence (P53667 whole entry, the tested form may be a part): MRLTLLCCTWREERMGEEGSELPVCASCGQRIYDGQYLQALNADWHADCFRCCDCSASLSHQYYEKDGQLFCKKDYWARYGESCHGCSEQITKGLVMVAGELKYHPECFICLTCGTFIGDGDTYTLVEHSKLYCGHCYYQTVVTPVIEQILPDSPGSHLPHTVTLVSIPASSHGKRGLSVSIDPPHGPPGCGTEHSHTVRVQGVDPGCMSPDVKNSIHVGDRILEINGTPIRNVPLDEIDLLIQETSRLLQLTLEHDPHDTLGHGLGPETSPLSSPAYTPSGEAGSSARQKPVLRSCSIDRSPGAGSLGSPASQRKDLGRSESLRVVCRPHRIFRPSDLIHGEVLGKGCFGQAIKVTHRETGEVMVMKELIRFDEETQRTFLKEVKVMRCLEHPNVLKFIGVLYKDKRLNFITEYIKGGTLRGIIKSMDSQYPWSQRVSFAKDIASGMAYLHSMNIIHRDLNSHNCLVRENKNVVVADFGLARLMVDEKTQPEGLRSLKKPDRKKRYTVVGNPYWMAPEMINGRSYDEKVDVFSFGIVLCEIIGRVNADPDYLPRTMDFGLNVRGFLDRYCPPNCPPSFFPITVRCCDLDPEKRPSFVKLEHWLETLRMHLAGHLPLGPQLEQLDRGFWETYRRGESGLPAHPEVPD

[10] = target: Serine/threonine-protein kinase SIK2 (Homo sapiens, UniProt Q9H0K1)
Further: in the data inactive means no Kd found up to 30 µM.

ATP-dependent RNA helicase DDX3X, sequence (O00571 whole entry): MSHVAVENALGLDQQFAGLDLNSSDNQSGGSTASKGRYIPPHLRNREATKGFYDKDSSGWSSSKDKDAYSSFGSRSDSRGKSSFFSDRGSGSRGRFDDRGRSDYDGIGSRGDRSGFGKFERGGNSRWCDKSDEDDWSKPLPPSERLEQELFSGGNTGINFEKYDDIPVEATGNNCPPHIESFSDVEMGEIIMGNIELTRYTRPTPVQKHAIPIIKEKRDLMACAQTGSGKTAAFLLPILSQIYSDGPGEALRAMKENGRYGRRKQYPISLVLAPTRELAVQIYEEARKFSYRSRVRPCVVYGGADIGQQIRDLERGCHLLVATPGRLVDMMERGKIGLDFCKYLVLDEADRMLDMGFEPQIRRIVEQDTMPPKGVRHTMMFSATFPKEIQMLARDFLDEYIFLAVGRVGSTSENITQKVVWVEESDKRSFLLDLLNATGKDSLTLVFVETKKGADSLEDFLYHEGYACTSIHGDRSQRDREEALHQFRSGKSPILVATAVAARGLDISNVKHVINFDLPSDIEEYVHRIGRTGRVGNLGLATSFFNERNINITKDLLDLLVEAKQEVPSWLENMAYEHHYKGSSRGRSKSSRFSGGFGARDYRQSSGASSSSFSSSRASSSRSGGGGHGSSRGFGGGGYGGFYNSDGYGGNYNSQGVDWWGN

| SMILES | Kd [1] | Kd [2] | Kd [3] | Kd [4] | Kd (Insulin receptor) | Kd (TGF-beta receptor type-2) | Kd [5] | Kd [6] | Kd (Myosin-10) | Kd [8] | Kd [9] | Kd (LIM domain kinase 1) | Kd [10] | Kd [7] |
| --- | --- | --- | --- | --- | --- | --- | --- | --- | --- | --- | --- | --- | --- | --- |
| CC(C)(C)c1nc(-c2cccc(NS(=O)(=O)c3c(F)cccc3F)c2F)c(-c2ccnc(N)n2)s1 [DABRAFENIB] | > 30 µM (inactive) | > 30 µM (inactive) | > 30 µM (inactive) | > 30 µM (inactive) | > 30 µM (inactive) | 2.53 µM (active) | > 30 µM (inactive) | > 30 µM (inactive) | > 30 µM (inactive) | – | – | 0.033 µM (active) | 0.649 µM (active) | > 30 µM (inactive) |
| CO[C@H]1C[C@@H]2CC[C@@H](C)[C@@](O)(O2)C(=O)C(=O)N2CCCC[C@H]2C(=O)O[C@H]([C@H](C)C[C@@H]2CC[C@@H](O)[C@H](OC)C2)CC(=O)[C@H](C)/C=C(\C)[C@@H](O)[C@@H](OC)C(=O)[C@H](C)C[C@H](C)/C=C/C=C/C=C/1C [SIROLIMUS] | > 30 µM (inactive) | > 30 µM (inactive) | > 30 µM (inactive) | > 30 µM (inactive) | > 30 µM (inactive) | > 30 µM (inactive) | > 30 µM (inactive) | > 30 µM (inactive) | > 30 µM (inactive) | > 30 µM (inactive) | > 30 µM (inactive) | > 30 µM (inactive) | > 30 µM (inactive) | – |
| O=C(Nc1cc(C(F)(F)F)cc(C(F)(F)F)c1)c1cc(Cl)ccc1O [IMD-0354] | > 30 µM (inactive) | > 30 µM (inactive) | > 30 µM (inactive) | – | > 30 µM (inactive) | > 30 µM (inactive) | > 30 µM (inactive) | > 30 µM (inactive) | > 30 µM (inactive) | > 30 µM (inactive) | > 30 µM (inactive) | – | > 30 µM (inactive) | > 30 µM (inactive) |
| Cc1cc(Nc2ncnc3ccc(NC4=NC(C)(C)CO4)cc23)ccc1Oc1ccn2ncnc2c1 [TUCATINIB] | > 30 µM (inactive) | > 30 µM (inactive) | > 30 µM (inactive) | > 30 µM (inactive) | > 30 µM (inactive) | > 30 µM (inactive) | > 30 µM (inactive) | > 30 µM (inactive) | > 30 µM (inactive) | > 30 µM (inactive) | > 30 µM (inactive) | > 30 µM (inactive) | > 30 µM (inactive) | > 30 µM (inactive) |
| CCCCCCCCCCCCCCCCCCOP(=O)([O-])OC1CC[N+](C)(C)CC1 [PERIFOSINE] | > 30 µM (inactive) | > 30 µM (inactive) | > 30 µM (inactive) | > 30 µM (inactive) | > 30 µM (inactive) | – | > 30 µM (inactive) | > 30 µM (inactive) | > 30 µM (inactive) | > 30 µM (inactive) | > 30 µM (inactive) | > 30 µM (inactive) | > 30 µM (inactive) | > 30 µM (inactive) |
| CN1CCN(CCOc2cc(OC3CCOCC3)c3c(Nc4c(Cl)ccc5c4OCO5)ncnc3c2)CC1 [SARACATINIB] | > 30 µM (inactive) | > 30 µM (inactive) | – | > 30 µM (inactive) | > 30 µM (inactive) | > 30 µM (inactive) | > 30 µM (inactive) | > 30 µM (inactive) | > 30 µM (inactive) | > 30 µM (inactive) | 10.2 µM (active) | > 30 µM (inactive) | 1.41 µM (active) | > 30 µM (inactive) |
| CCOc1cc2ncc(C#N)c(Nc3ccc(F)c(Cl)c3)c2cc1NC(=O)/C=C/CN(C)C [PELITINIB] | > 30 µM (inactive) | > 30 µM (inactive) | > 30 µM (inactive) | > 30 µM (inactive) | > 30 µM (inactive) | > 30 µM (inactive) | > 30 µM (inactive) | > 30 µM (inactive) | > 30 µM (inactive) | > 30 µM (inactive) | 0.514 µM (active) | > 30 µM (inactive) | – | – |

Further lines, with some results ahead:

| Kd [1] | Kd [2] | Kd [3] | Kd [4] | Kd (Insulin receptor) | Kd (TGF-beta receptor type-2) | Kd [5] | Kd [6] | Kd (Myosin-10) | Kd [8] | Kd [9] | Kd (LIM domain kinase 1) | Kd [10] | SMILES | Kd [7] |
| --- | --- | --- | --- | --- | --- | --- | --- | --- | --- | --- | --- | --- | --- | --- |
| > 30 µM (inactive) | 3.65 µM (active) | > 30 µM (inactive) | > 30 µM (inactive) | > 30 µM (inactive) | > 30 µM (inactive) | > 30 µM (inactive) | > 30 µM (inactive) | > 30 µM (inactive) | > 30 µM (inactive) | > 30 µM (inactive) | > 30 µM (inactive) | > 30 µM (inactive) | CN(C[C@@H]1COCCO1)S(=O)(=O)Nc1ccc2ccc3ncc(-c4cnn(C)c4)cc3c(=O)c2c1 [MK-2461] | > 30 µM (inactive) |
| > 30 µM (inactive) | > 30 µM (inactive) | > 30 µM (inactive) | > 30 µM (inactive) | > 30 µM (inactive) | > 30 µM (inactive) | 5.63 µM (active) | > 30 µM (inactive) | > 30 µM (inactive) | 2.3 µM (active) | > 30 µM (inactive) | > 30 µM (inactive) | > 30 µM (inactive) | CN1C/C=C/CCOc2cccc(c2)-c2ccnc(n2)Nc2cccc(c2)C1 [ZOTIRACICLIB] | > 30 µM (inactive) |
| > 30 µM (inactive) | 0.122 µM (active) | > 30 µM (inactive) | > 30 µM (inactive) | > 30 µM (inactive) | > 30 µM (inactive) | > 30 µM (inactive) | > 30 µM (inactive) | > 30 µM (inactive) | 2.74 µM (active) | > 30 µM (inactive) | > 30 µM (inactive) | > 30 µM (inactive) | C[C@@H](N)c1ccc(C(=O)Nc2ccnc3[nH]ccc23)cc1 [Y-39983] | > 30 µM (inactive) |
| > 30 µM (inactive) | > 30 µM (inactive) | > 30 µM (inactive) | > 30 µM (inactive) | > 30 µM (inactive) | > 30 µM (inactive) | > 30 µM (inactive) | > 30 µM (inactive) | > 30 µM (inactive) | > 30 µM (inactive) | > 30 µM (inactive) | > 30 µM (inactive) | > 30 µM (inactive) | N#CC1(c2ccc(NC(=O)c3cccnc3NCc3ccncc3)cc2)CCCC1 [RIVOCERANIB] | > 30 µM (inactive) |
| > 30 µM (inactive) | > 30 µM (inactive) | > 30 µM (inactive) | > 30 µM (inactive) | > 30 µM (inactive) | > 30 µM (inactive) | > 30 µM (inactive) | > 30 µM (inactive) | > 30 µM (inactive) | > 30 µM (inactive) | > 30 µM (inactive) | > 30 µM (inactive) | > 30 µM (inactive) | O=C(Cc1ccc(-c2ccc(OCCN3CCOCC3)cc2)cn1)NCc1ccccc1 [TIRBANIBULIN] | – |
| > 30 µM (inactive) | > 30 µM (inactive) | > 30 µM (inactive) | > 30 µM (inactive) | > 30 µM (inactive) | > 30 µM (inactive) | > 30 µM (inactive) | > 30 µM (inactive) | > 30 µM (inactive) | > 30 µM (inactive) | > 30 µM (inactive) | 1.85 µM (active) | > 30 µM (inactive) | Cc1nc2cc(-c3nn(C(C)C)c4ncnc(N)c34)ccc2o1 | – |
